Experimental data taken from US20230045390A1, “PLASMODIUM VIVAX MALE GAMETE FUSION PROTEIN PVHAP2 AND THE PUTATIVE PROLIFERATING-CELL NUCLEOLAR ANTIGEN P120 AS RELAPSE BIOMARKERS” (Seattle Children's Hospital dba Seattle Children's Research …, priority 2021, published 2023).
Entries after “also recorded” stand apart in the source; their conditions may differ.

Assays:
P. vivax = assay: 18S qRT-PCR analysis of liver parasite load in infected FRG huHep mice; assay type: in vivo, Plasmodium vivax; conditions: for parasite load, 18S rRNA in liver tissue by RT-qPCR: compared to DMSO
Method: (§1) All animal procedures were conducted in accordance with and approved by the Center for Infectious Disease Research Institutional Animal Care and Use Committee (IACUC). The Center for Infectious Disease Research IACUC adheres to the NIH Office of Laboratory Animal Welfare standards (OLAW welfare assurance #A3640-01). Female FRG KO mice engrafted with human hepatocytes (FRG KO huHep) were purchased from Yecuris Corporation (Oregon, USA). P. vivax infections of FRG huHEP were performed as previously described. Briefly, mice were divided in five experimental groups. Group 1 (3 mice) was not infected. Group 2 (6 mice) was inoculated with P. vivax sporozoites by the bite of 20 mosquitos and euthanized after 8 days post-infection (dpi). Group 3 (6 mice) was infected by intravenous injection of P. vivax sporozoites (0.8 million) and euthanized after 8 dpi. Group 4 (6 mice) was infected by intravenous injection of P. vivax sporozoites (1 million sporozoites) and euthanized after 21 dpi. Group 5 (3 mice) was infected by intravenous injection (1 million sporozoites) and treated with Tafenoquine (10 mg/kg) at 14 dpi and euthanized at 21 dpi. MMV048 (Novartis) mice treatment (30 mg/kg) was performed as follows: three mice from Groups 2 and 3 received intravenous injections of the drug at 4 dpi; three mice from Group 4 received intravenous injections of the drug at 17 dpi. Three DMSO-treated animals were used as controls in groups 2, 3 and 4. After euthanasia, livers were extracted for characterization by IFA and RT-qPCR and whole blood was extracted by cardiac venipuncture for plasma collection as previously described (Schafer C, et al. A recombinant antibody against Plasmodium vivax UIS4 for distinguishing replicating from dormant liver stages. Malar J 17, 370 (2018)).
Liver parasite load from infected FRG huHEP mice was quantified as previously described (Flannery E L, et al. Assessing drug efficacy against Plasmodium falciparum liver stages in vivo. JCI Insight 3, (2018)).

[1] = system: P. vivax liver stages in PHH; assay: P. vivax infection of primary human hepatocytes (PHH), quantification of extraerythrocytic forms by IFA; assay type: cell-based, Plasmodium vivax; conditions: 0.1 μM after day 3 post-infection, fixed day 6
Method: Primary human hepatocytes (BioIVT) were plated and infected in chamber slides as previously described (Schafer C, et al. A Humanized Mouse Model for Plasmodium vivax to Test Interventions that Block Liver Stage to Blood Stage Transition and Blood Stage Infection. […] 23, 101381 (2020)). Briefly, 8-well PermanoxTM slides (LabTek) were coated with collagen (Advanced Biomatrix) and seeded with 1.25×10^5 viable cells using InVitroGROTM CP medium (BioIVT) supplemented with 2% FBS without antibiotics (plating media). Four hours later, plating media was replaced with InVitroGROTM CP containing antibiotics (1× Torpedo Antibiotic Mix with 10 μM gentamycin) without serum (maintenance media). Two days after plating, cells were infected with freshly dissected P. vivax salivary gland sporozoites (MOI=1.0) for four hours in maintenance media supplemented with 20% FBS. Cells were washed once, and maintenance media replaced daily thereafter and stored at -80° C. for EV analysis. After day 3 post-infection, cultures were treated with 0.1 μM MMV048 or 0.1% DMSO as vehicle (FIG. 5). On day 6-post infection, cells were fixed and analyzed by IFA. Total extraerythrocytic forms (EEF) and schizont/hypnozoite numbers and ratio were quantified. IFA analysis of PHH and liver sections of FRG huHep mice was performed as described (Schafer C, et al. A Humanized Mouse Model for Plasmodium vivax to Test Interventions that Block Liver Stage to Blood Stage Transition and Blood Stage Infection. iScience 23, 101381 (2020); Schafer C, et al. A recombinant antibody against Plasmodium vivax UIS4 for distinguishing replicating from dormant liver stages. […] 17, 370 (2018)). Briefly, culture cells and liver tissue were fixed in 4% paraformaldehyde in TBS for 10 min (PHH) and 16 hours (liver sections). PHH were blocked and permeabilized in TBS with 2% bovine serum albumin and 0.2% Triton-X-100 (PBS/BSA/Triton). FRG huHep fixed livers were sectioned in 50 μm thick sections in a vibratome. […]

[2] = system: P. cynomolgi liver hypnozoites; conditions: radical cure mode, both in vitro and in vivo; cited from earlier work
P. vivax liver stages = assay: P. vivax infection of FRG huHep mice, quantification of liver stages by IFA; assay type: in vivo, Plasmodium vivax
Method: as §1, with “Malar J” left out, “(2018)). IFA analysis of PHH and liver sections of FRG huHep mice was performed as described (Schafer C, et al. A Humanized Mouse Model for Plasmodium vivax to Test Interventions that Block Liver Stage to Blood Stage Transition and Blood Stage Infection. iScience 23, 101381 (2020); Schafer C, et al. A recombinant antibody against Plasmodium vivax UIS4 for distinguishing replicating from dormant liver stages. […] 17, 370 (2018)). Briefly, culture cells and liver tissue were fixed in 4% paraformaldehyde in TBS for 10 min (PHH) and 16 hours (liver sections). PHH were blocked and permeabilized in TBS with 2% bovine serum albumin and 0.2% Triton-X-100 (PBS/BSA/Triton). FRG huHep fixed livers were sectioned in 50 μm thick sections in a vibratome. Tissue sections were then permeabilized in 0.25% Triton X-100 and 3% H2O2 for 30 min followed by a blocking step in 5% skim milk in TBS for 1 hour at RT. […]” for “(2018)).”

Plasmodium spp. = conditions: preclinical studies; cited from earlier work
[3] = group 4: intravenous infection, treated at 17 dpi, livers collected 21 dpi
[4] = group 5: 10 mg/kg at 14 dpi, euthanized 21 dpi

CS(=O)(=O)c1ccc(-c2cnc(N)c(-c3ccc(C(F)(F)F)nc3)c2)cc1 [MMV048]
parasite load, 18S rRNA in liver tissue by RT-qPCR (P. vivax; day 21, group 4): no differences | parasite load, 18S rRNA in liver tissue by RT-qPCR (P. vivax; mosquito bite and intravenous infection, treated at 4 dpi, analyzed 8 dpi): significantly reduced parasite load | hypnozoites by IFA [1]: resistance of hypnozoites to the drug | schizonts by IFA ([1]; compared to DMSO): no schizonts were observed; also recorded: removed schizonts | total extraerythrocytic forms (EEF) by IFA ([1]; compared to DMSO-treated cells): significant reduction | activity against liver hypnozoites [2]: ineffective | number of schizonts in liver by IFA (P. vivax liver stages; 30 mg/kg intravenous, groups 2, 3 and 4, compared to control mice): significantly lower number of schizonts; also recorded: removed schizonts | hypnozoites in liver by IFA (P. vivax liver stages; [3]): only one hypnozoite was detected | schizonts in liver by IFA (P. vivax liver stages; [3]): no schizonts | activity against asexual, transmission and liver stages (Plasmodium spp.): potent activity

COc1cc(C)c2c(Oc3cccc(C(F)(F)F)c3)c(OC)cc(NC(C)CCCN)c2n1 (stereo not drawn) [Tafenoquine]
parasite 18S rRNA in liver by RT-qPCR (P. vivax; [4]): presence of parasite 18S rRNA | liver forms by IFA (P. vivax liver stages; [4]): no liver forms were quantified
